Measured values: patent US20080076711A1, “Therapeutic agents for osteopenia” (Chugai Seiyaku Kabushiki Kaisha, priority 2001, published 2008)

What was measured:
Type in all cases: in vivo, mouse
[1] = tested on: OPN knockout (OPN-KO) mice; test: Determination of cancellous bone mass (BV/TV) after PTH treatment, OPN-KO mice; conditions: PTH(+) group, 80 μg/kg s.c., 4 weeks, five days a week, mean ± standard error
Method: Sagittal sections were prepared from the metaphyseal region of femur and tomographed using an X-ray microtomograph Musashi (Nittetsu-ELEX, Osaka, Japan). A Luzex-F automated Image analysis system (Nireco, Tokyo, Japan) was then used for analysis of the image data from a 1.47 mm^2 square area (0.7 mm×2.1 mm) located 0.2 mm apart from the growth plate of the distal end of femur to obtain BV/TV values.
BV/TV (bone volume/total tissue volume) denotes the unit bone mass (%), i.e., the percentage of the total trabecular volume in the total tissue volume. Namely, an increase in BV/TV means an increase in calcified bone.
(§1) To create an animal model in which the in vivo effects of OPN were inhibited, strain 129 female mice at 7 weeks of age were modified into knockout mice deficient in the OPN gene (OPN-KO mice), as described in Rittling et al. J. Bone Miner. Res., 13: 1101-1111, 1998. These mice were singly used for PTH treatment test. They were divided into groups of 6 mice each.
(§2) Recombinant human PTH(1-34) (Bachem, Torrance, Calif.) was dissolved in acidified physiological saline supplemented with 0.1% bovine serum albumin (Sigma Chemical Co.-Aldrich, St. Louis, Mo.). The OPN-KO mice were subcutaneously administered with 80 μg/kg of body weight human PTH(1-34) for 4 weeks on a five-days-a-week basis. Mice in the control group were administered with physiological saline alone.

[2] = tested on: OPN knockout (OPN-KO) mice; test: Determination of cortical bone thickness and area after PTH treatment, OPN-KO mice; conditions: PTH(+) group, 80 μg/kg s.c., 4 weeks, femoral mid-diaphysis
Method: Horizontal sections were prepared from the femoral mid-diaphysis and tomographed using an X-ray microtomograph Musashi (Nittetsu-ELEX, Osaka, Japan). A Luzex-F automated image analysis system (Nireco, Tokyo, Japan) was then used for analysis of the image data to determine the thickness and area of cortical bone. The thickness was evaluated at the mean value averaged over 8 measurements every 45°.
as §1, §2

[3] = tested on: OPN knockout (OPN-KO) mice; test: BFR and MAR in cancellous bone (distal end of femur) after PTH treatment, OPN-KO mice
Method: BFR denotes bone formation rate per unit trabecular area (μm^3/μm^2/day).
MAR denotes the rate of increase in the distance between labeled calcified bands (μm/day).
In the case of cancellous bone, decalcified sagittal sections were prepared from the metaphyseal region and analyzed for BFR and MAR in a 1.4 mm^2 square area located 0.2 mm apart from the growth plate of the distal end of femur. Labeling was accomplished by subcutaneous administration of xylenol orange (100 mg/kg of body weight) 4 days before and calcein 2 days before sampling.
as §1, §2

[4] = tested on: OPN knockout (OPN-KO) mice; test: Determination of TRAP-positive cells (osteoclasts) after PTH treatment, OPN-KO mice; conditions: PTH(+) group, 80 μg/kg s.c., 4 weeks
Method: (§3) After treatment with PTH, forefoot bone was excised from each animal. Each bone was rinsed with PBS, fixed for 7 days in 4% paraformaldehyde acid and decalcified for 3 days in 10% EDTA (pH 7.4), followed by dehydration and embedding in paraffin. Serial sections of 7 μm thickness were prepared from paraffin blocks and stained to measure TRAP (tartrate resistant acid phosphatase) activity, with Alcian blue for counter-staining. Among TRAP-positive cells attached to cancellous bone, those having at least three nuclei were counted using 15 serial sections of 7 μm thickness prepared from each bone. Each of the 15 sections was taken at five-section intervals from a total of 75 sections per bone. The number of multinucleated TRAP-positive cells in all 15 sections was summed to give the total number of osteoclasts per unit trabecular perimeter.
as §1
Recombinant human PTH(1-34) (Bachem, Torrance, Calif.) was dissolved in acidified physiological saline supplemented with 0.1% bovine serum albumin (Sigma Chemical Co.-Aldrich, St. Louis, Mo.). […]

[5] = tested on: OPN knockout (OPN-KO) mice; test: Analysis of urinary deoxypyridinoline (Dpyr) after PTH treatment, OPN-KO mice
Method: At 26 days after treatment with PTH, a 24-hour urine sample was collected from each mouse (10 samples per group). As a marker of bone metabolism, the level of urinary deoxypyridinoline (Dpyr) was measured for each sample using an ELISA kit (Metra Biosystems, San Diego, Calif.) in accordance with the manufacturer's protocol.
as §1, §2

[6] = tested on: wild-type strain 129 female mice; test: Determination of TRAP-positive cells (osteoclasts) after PTH treatment, wild-type mice; conditions: WT mice, PTH(+) group, 80 μg/kg s.c., 4 weeks
Method: as §3, with “perimeter. Recombinant human PTH(1-34) (Bachem, Torrance, Calif.) was dissolved in acidified physiological saline supplemented with 0.1% bovine serum albumin (Sigma Chemical Co.-Aldrich, St. Louis, Mo.). The OPN-KO mice were subcutaneously administered with 80 μg/kg of body weight human PTH(1-34) for 4 weeks on a five-days-a-week basis. Mice in the control group were administered with physiological saline alone. The effect of PTH on bone metabolism was also examined in the same manner as shown in Example 1, using wild-type strain 129 female mice (7 weeks of age). […]” for “perimeter.”

[7] = tested on: wild-type strain 129 female mice; test: Analysis of urinary deoxypyridinoline (Dpyr) after PTH treatment, wild-type mice; conditions: WT mice
Method: At 26 days after treatment with PTH, a 24-hour urine sample was collected from each mouse (10 samples per group). As a marker of bone metabolism, the level of urinary deoxypyridinoline (Dpyr) was measured for each sample using an ELISA kit (Metra Biosystems, San Diego, Calif.) in accordance with the manufacturer's protocol. Recombinant human PTH(1-34) (Bachem, Torrance, Calif.) was dissolved in acidified physiological saline supplemented with 0.1% bovine serum albumin (Sigma Chemical Co.-Aldrich, St. Louis, Mo.). The OPN-KO mice were subcutaneously administered with 80 μg/kg of body weight human PTH(1-34) for 4 weeks on a five-days-a-week basis. Mice in the control group were administered with physiological saline alone. The effect of PTH on bone metabolism was also examined in the same manner as shown in Example 1, using wild-type strain 129 female mice (7 weeks of age). These mice were divided into groups of 6 mice each.

[8] = OPN-KO mice, PTH(+) group, 80 μg/kg s.c., 4 weeks, distal end of femur
[9] = OPN-KO mice, PTH(+) vs PTH(−) group, p<0.05
[10] = cancellous bone, OPN-KO vs WT mice, p<0.05
[11] = PTH(+) group, 24-hour urine at 26 days

human PTH(1-34)
cancellous bone mass BV/TV [1]: 24.41±2.85%
area of cortical bone [2]: 0.88±0.13 mm^2
thickness of cortical bone [2]: 0.26±0.04 mm
BFR in cancellous bone [3, 8]: 2.68±0.34 μm^3/μm^2/day
MAR in cancellous bone [3, 8]: 6.21±1.11 μm/day
fold increase in cancellous BFR by PTH treatment [3, 9]: ~2.1 fold
fold increase in cancellous MAR by PTH treatment [3, 9]: ~1.7 fold
elevation in the magnitude of PTH-induced increase in BFR caused by lack of OPN [3, 10]: ~1.3 fold
elevation in the magnitude of PTH-induced increase in MAR caused by lack of OPN [3, 10]: about 1.4 fold
number of osteoclasts per unit trabecular perimeter of cancellous bone [4]: 7.6±1.0 cells/mm
urinary Dpyr level [5, 11]: 34.67±4.52 nM/mM Cr
fold increase in systemic bone resorption (urinary Dpyr) by PTH treatment ([5]; PTH(+) vs PTH(−) group, p<0.05): ~1.2 fold
number of osteoclasts per unit trabecular perimeter of cancellous bone trabeculae [6]: 9.2±1.8 cells/mm
urinary Dpyr level [7, 11]: 34.86±6.90 nM/mM Cr
fold increase in systemic bone resorption (urinary Dpyr) by PTH treatment ([7]; PTH(+) vs PTH(−) group, p<0.05): ~1.2 fold
